# Source: US10662161B2, “Pyrimidines and uses thereof” (Regents of the University of Minnesota, priority 2017, dated 2020)
# “And” between values parts separate entries of the source, which are not always exact repeats. Identical values can stand only once. “Also recorded” adds a separate entry of the source. Counter-ions that a name gives are not always drawn.
# Molecular target: T1, human TLR8 (Homo sapiens, UniProt Q9NR97)
# T1 construct: expressed in transfected cells; host or cells: HEK293
# T1 sequence (Q9NR97 27-1041): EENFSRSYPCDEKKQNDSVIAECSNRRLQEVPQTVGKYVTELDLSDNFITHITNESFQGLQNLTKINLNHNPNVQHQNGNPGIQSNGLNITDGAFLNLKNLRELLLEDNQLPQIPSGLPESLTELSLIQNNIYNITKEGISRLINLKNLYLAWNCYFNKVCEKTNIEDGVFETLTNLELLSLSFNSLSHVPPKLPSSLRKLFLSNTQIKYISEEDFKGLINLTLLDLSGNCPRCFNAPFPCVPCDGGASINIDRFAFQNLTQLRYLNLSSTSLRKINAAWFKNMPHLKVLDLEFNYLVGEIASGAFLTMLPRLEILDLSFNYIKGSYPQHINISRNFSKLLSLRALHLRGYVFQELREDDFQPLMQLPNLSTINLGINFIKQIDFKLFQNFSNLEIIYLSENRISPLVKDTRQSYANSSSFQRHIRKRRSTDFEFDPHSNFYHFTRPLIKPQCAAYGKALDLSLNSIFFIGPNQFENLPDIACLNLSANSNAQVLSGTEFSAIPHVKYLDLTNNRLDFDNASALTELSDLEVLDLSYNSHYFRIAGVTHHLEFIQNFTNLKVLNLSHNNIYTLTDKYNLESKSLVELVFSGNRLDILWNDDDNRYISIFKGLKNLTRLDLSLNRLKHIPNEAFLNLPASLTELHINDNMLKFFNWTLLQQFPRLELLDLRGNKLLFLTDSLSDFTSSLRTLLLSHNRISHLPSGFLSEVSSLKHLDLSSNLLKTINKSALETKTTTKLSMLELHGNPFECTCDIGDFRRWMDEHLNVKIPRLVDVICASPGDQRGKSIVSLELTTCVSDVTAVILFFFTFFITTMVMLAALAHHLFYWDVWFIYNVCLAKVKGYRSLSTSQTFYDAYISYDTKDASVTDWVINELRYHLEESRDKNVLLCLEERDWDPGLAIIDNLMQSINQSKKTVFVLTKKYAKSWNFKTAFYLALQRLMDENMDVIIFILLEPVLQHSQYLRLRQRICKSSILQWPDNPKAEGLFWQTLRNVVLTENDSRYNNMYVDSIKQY
# Assay: Human TLR8-specific reporter gene assay (NF-κB induction, sAP) in HEK293 cells
# Type: cell-based
# Conditions: primary screen, HEK293 hTLR8 reporter cells; read-out: EC50, TLR8 agonistic activity (hTLR8-specific NF-κB induction)
# Text: Human TLR8-Specific Reporter Gene Assays (NF-κB Induction), and TLR-2/-3/-4/-5/-7/-9 Counter-Screens:
# The induction of NF-κB was quantified using human TLR-2/-3/-4/-5/-7/-8/-9-specific, rapid-throughput, liquid handler-assisted reporter gene assays as previously described by us.^31,25, 32,33 HEK293 cells stably co-transfected with the appropriate hTLR and secreted alkaline phosphatase (sAP) were maintained in HEK-Blue™ Selection medium. Stable expression of secreted alkaline phosphatase (sAP) under control of NF-κB/AP-1 promoters is inducible by appropriate TLR agonists, and extracellular sAP in the supernatant is proportional to NF-κB induction. Reporter cells were incubated at a density of ˜10^5 cells/ml in a volume of 80 μl/well, in 384-well, flat-bottomed, cell culture-treated microtiter plates in the presence of graded concentrations of stimuli. sAP was assayed spectrophotometrically using an alkaline phosphatase-specific chromogen (present in HEK-detection medium as supplied by InvivoGen) at 620 nm.
row,EC50,SMILES
1,22000 nM,"CCCCNc1cc(C)nc(N)n1 [Compound 15, N^4-Butyl-6-methylpyrimidine-2,4-diamine]"
2,73200 nM,"CCCCNc1ccnc(N)n1 [Compound 16, N^4-Butylpyrimidine-2,4-diamine]"
3,2310 nM,"CCCCNc1nc(N)nc(C)c1CCCN.Cl.Cl [Compound 27a, 5-(3-Aminopropyl)-N^4-butyl-6-methylpyrimidine-2,4-diamine dihydrochloride]"
4,2700 nM,"CCCCNc1nc(N)nc(-c2ccccc2)c1CCCCN.Cl.Cl [Compound 32b, 5-(4-Aminobutyl)-N^4-butyl-6-phenylpyrimidine-2,4-diamine dihydrochloride]"
5,2350 nM,"CCCCNc1nc(N)nc(-c2ccccc2)c1CCCCCN [Compound 32c, 5-(5-Aminopentyl)-N^4-butyl-6-phenylpyrimidine-2,4-diamine dihydrochloride]"

# Same assay, conditions: primary screen, reporter gene assay
row,TLR8-agonistic activity (in words),SMILES
1,abrogated activity,"CCCCN(C)c1nc(N)nc(C)c1I [Compound 4e, N^4-Butyl-5-iodo-N^4,6-dimethylpyrimidine-2,4-diamine]"
2,abrogated activity,"CCCCN(Cc1ccccc1)c1nc(N)nc(C)c1I [Compound 4f, N^4-Benzyl-N^4-butyl-5-iodo-6-methylpyrimidine-2,4-diamine]"
3,inactive,"CCCCSc1nc(N)nc(C)c1I [Compound 4h, 4-(Butylthio)-5-iodo-6-methylpyrimidin-2-amine]"
4,inactive,"CCCC#Cc1cc(C)nc(N)n1 [Compound 4i, 4-Methyl-6-(pent-1-yn-1-yl)pyrimidin-2-amine]"
5,inactive,"CCCCCc1cc(C)nc(N)n1 [Compound 4j, 4-Methyl-6-pentylpyrimidin-2-amine]"
6,inactive,"CCCCCc1nc(N)nc(C)c1I [Compound 4k, 5-iodo-4-methyl-6-pentylpyrimidin-2-amine]"
7,substantial losses in potency,"CCCCNc1nc(N)nc(C)c1Cl [Compound 6a, N^4-Butyl-5-chloro-6-methylpyrimidine-2,4-diamine]"
8,substantial losses in potency,"CCCCNc1nc(N)nc(C)c1Br [Compound 6b, 5-Bromo-N^4-butyl-6-methylpyrimidine-2,4-diamine]"
9,substantial losses in potency,"CCCCNc1nc(N)nc(C)c1F [Compound 6c, N^4-Butyl-5-fluoro-6-methylpyrimidine-2,4-diamine]"
10,appeared to plateau,"CCCCNc1nc(N)nc(C)c1CCCCCN.Cl.Cl [Compound 27c, 5-(5-Aminopentyl)-MN-butyl-6-methylpyrimidine-2,4-diamine dihydrochloride]"
11,inactive,"CCCCNc1nc(N)nc(-c2ccccc2)c1I [Compound 29, N^4-Butyl-5-iodo-6-phenylpyrimidine-2,4-diamine]"

row,SMILES,TLR8-agonistic activity (in words)
1,"CCCCOc1nc(N)nc(C)c1I [Compound 4g, 4-Butoxy-5-iodo-6-methylpyrimidin-2-amine]",inactive
2,"CCCCNc1nc(N)ncc1I [Compound 17, N^4-Butyl-5-iodopyrimidine-2,4-diamine]",entirely without measurable TLR8-agonistic activity
3,"CCCCNc1nc(N)nc(C)c1Cc1ccccc1 [Compound 24, 5-Benzyl-MN-butyl-6-methylpyrimidine-2,4-diamine]","diminution of activity, exhibiting greatly attenuated area-under-the curve"

# Same assay, conditions: reference printed as 4b (22 μM)
row,fold increase in TLR8 potency relative to that of 4b (22 μM),SMILES
1,increased nearly ten-fold,"CCCCNc1nc(N)nc(C)c1CCCN.Cl.Cl [Compound 27a, 5-(3-Aminopropyl)-N^4-butyl-6-methylpyrimidine-2,4-diamine dihydrochloride]"

# Same assay, conditions: relative to 4b
row,fold less active than 4b (TLR8 EC50),SMILES
1,ca. fourteen-fold less active,"CCCCNc1cc(C)nc(N)n1 [Compound 15, N^4-Butyl-6-methylpyrimidine-2,4-diamine]"

# Same assay, conditions: reporter gene assays with TLR-2/-3/-4/-5/-7/-9 counter-screens
row,SMILES,TLR8 specificity/selectivity (in words)
1,"CCCCNc1nc(N)nc(C)c1I [Compound 4b, N^4-Butyl-5-iodo-6-methylpyrimidine-2,4-diamine]",pure TLR8 agonist; also recorded: bona fide TLR8-specific agonist

# System: human peripheral blood mononuclear cells (hPBMC)
# Assay: Multiplexed immunoassays for cytokine and chemokine induction in human PBMCs
# Type: cell-based
# Conditions: 41-analyte multiplexed immunoassay
# Protocol: Immunoassays for Cytokines.
# Fresh human peripheral blood mononuclear cells (hPBMC) were isolated from human blood obtained by venipuncture in Cell Preparation Tubes (CPT, Beckton-Dickinson) with informed consent and as per guidelines approved by the University of Minnesota Human Subjects Experimentation Committee. Aliquots of PBMCs (10^5 cells in 100 µL/well) were stimulated for 16 h with graded concentrations of test compounds. Supernatants were isolated by centrifugation, and were assayed in duplicates using analyte-specific multiplexed cytokine/chemokine bead array assays (HCYTMAG-60K-PX29 MILLIPLEX MAP Human Cytokine/Chemokine Magnetic Bead Panel, EMD Millipore, Billerica, Mass.) as reported by us previously.^19 The following analytes were quantified: sCD40L, VEGF, TNF-β, TNF-α. TGF-α, RANTES, PDGF-AB/BB, PDGF-AA, MIP-1β, MIP-1α, MDC (CCL22), MCP-3, MCP-1, IP-10, IL-17A, IL-15, IL-13, IL-12 (p70), IL-12 (p40). IL-10, IL-9, IL-8, IL-7, IL-6, IL-5, IL-4, IL-3, IL-2, IL-1 ra, IL-1β, IL-1α, IFN-γ, IFN-α2, GRO, GM-CSF, G-CSF, fractalkine, Fit-3 ligand, FGF-2, eotaxin, EGF.
row,SMILES,cytokine and chemokine induction (in words)
1,"CCCCNc1nc(N)nc(-c2ccccc2)c1CCCCN.Cl.Cl [Compound 32b, 5-(4-Aminobutyl)-N^4-butyl-6-phenylpyrimidine-2,4-diamine dihydrochloride]",significantly weaker

# System: CD80 expression in the monocytes (human whole blood)
# Assay: Flow-cytometric immunostimulation: CD80 upregulation in human whole blood
# Type: cell-based
# Conditions: 16 h, CD80-PE-Cy7 MFI
# Protocol: Flow-Cytometric Immunostimulation Experiments:
# Cell surface marker upregulation was determined by flow cytometry using protocols published by us previously. Briefly, heparin-anticoagulated whole blood samples were obtained by venipuncture from healthy human volunteers with informed consent and as per guidelines approved by the University of Minnesota Human Subjects Experimentation Committee. Serial dilutions of selected compounds were performed using a Bio-Tek Precision 2000 XS liquid handler in sterile 96-well polypropylene plates, to which were added 100 μL aliquots of anticoagulated whole human blood. The plates were incubated at 37° C. for 16 h. Negative (DMSO) controls were included in each experiment. The following fluorochrome-conjugated antibodies were used: CD14-FITC, CD40-APC, CD80-PE-Cy7, CD86-V450 (Becton-Dickinson Biosciences, San Jose, Calif.). Following incubation, 2.5 μg of each antibody was added to wells with a liquid handler, and incubated at 4° C. in the dark for 60 min. Following staining, erythrocytes were lysed and leukocytes fixed by mixing 200 μL of the samples in 800 μL pre-warmed Whole Blood Lyse/Fix Buffer (Becton-Dickinson Biosciences, San Jose, Calif.) in 96 deep-well plates. After washing the cells twice at 300 g for 10 minutes in RPMI, the cells were transferred to a 96-well plate. […]
row,SMILES,activity in upregulating CD80
1,"CCCCNc1nc(N)nc(C)c1I [Compound 4b, N^4-Butyl-5-iodo-6-methylpyrimidine-2,4-diamine]",1.5 μg/mL and 5 μM
